Active and inactive are the calls of the source.
What was measured:
[1] = Luminescence Cell-Based Dose Response HTS to Identify Activators of Luciferase Translation or Activity in H4 […] Cells. [Related pubchem assays: 1829 (Project Summary), 1814 (Primary HTS)]; type: functional
[2] = viability of HCT116 lacking mutant beta-catenin – cell-based, human colon tumor, dose response (AID 1045); type: functional;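 further: HCT116 colon tumor cells with beta catenin knocked out; cells exposed to compound for 60 hours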
[3] = Luminescence Cell-Based Dose Response to Identify Activators of Luciferase Translation or Activity in H4-C Neuroglioblastoma Cells. [Related pubchem assays: 1829 (Project Summary), 1814 (Primary HTS)]; type: functional
[4] = HepG2 cell cytotoxicity, dose response, cytotoxicity control for non-replicating M. tuberculosis project (AID 489018); type: functional; conditions: Mycobacterium tuberculosis
[5] = cells; type: functional
[6] = viability of PTEN-deleted HCT116 cells – cell-based, HCT116 PTEN knockout, dose response (AID 1047); type: functional;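 further: HCT116 colon tumor cells with PTEN knocked out; cells exposed to compound for 60 hours before readout; potency for loss of cell viability measured by luminescence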
[7] = Vero E6 cell cytotoxicity, dose response, cytotoxicity control for non-replicating M. tuberculosis project, secondary assay (AID 492998); type: functional, VeroE6; conditions: Vero C1008
[8] = Luminescence Cell-Based Dose Confirmation to Identify Activators of 5'UTR Stem-Loop Driven Alpha-Synuclein mRNA Translation in H4 Neuroglioblastoma Cells. [Related pubchem assays: 1829 (Project Summary), 1814 (Primary HTS)]; type: functional
[9] = target: Paired box protein Pax-8 (Homo sapiens, UniProt Q06710); test: PAX8 transcriptional activity inhibition in RMG-I – RMG-I cells, luciferase, cherry-pick, dose response (AID 687027); type: functional, cell-based;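 further: luciferase reporter driven by Pax8 target thyroperoxidase promoter measured by SteadyGlo luminescence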
[10] = target: Heat shock protein HSP 90-alpha (Homo sapiens, UniProt P07900); type: functional, organism-based
[11] = THP-1 cell cytotoxicity, dose response, cytotoxicity control for non-replicating M. tuberculosis project (AID 489025); type: functional
[12] = system: INS1; test: INS-1E survival protection against cytokine death – cell-based, luminescence, retest, dose response (AID 449756); type: functional; conditions: Rattus norvegicus;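 further: cell death triggered by IL-1 beta plus TNF-alpha plus IFN-gamma mixture; protective hits raise ATP signal compared with cytokine alone wells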
[13] = microbe, parasite or virus in culture; type: functional; conditions: Mycobacterium tuberculosis
[14] = Luminescence Cell-Based Dose Response to Identify Activators of 5'UTR Stem-Loop Driven Prion Protein mRNA Translation in H4-C Neuroglioblastoma Cells. [Related pubchem assays: 1829 (Project Summary), 1814 (Primary HTS)]; type: functional
[15] = Luminescence Cell-Based Dose Confirmation HTS to Identify Activators of 5'UTR Stem-Loop Driven Alpha-Synuclein mRNA Translation in H4 Neuroglioblastoma Cells. [Related pubchem assays: 1829 (Project Summary), 1814 (Primary HTS)]; type: functional
[16] = system: H4; test: Luminescence Cell-Based Dose Response HTS to Identify Activators of 5'UTR Stem-Loop Driven Prion Protein mRNA Translation in H4 Neuroglioblastoma Cells. [Related pubchem assays: 1829 (Project Summary), 1814 (Primary HTS)]; type: functional; conditions: Homo sapiens
[17] = viability loss in THP-1 monocytes – THP-1 cells, cytotoxicity control for Vif-APOBEC3G degradation inhibitor project, dose response (AID 1117359); type: functional; conditions: THP-1
[18] = luciferase reporter signal reduction – luminescence, H4-C neuroglioblastoma cells, dose response (AID 2458); type: functional, cell-based;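 further: H4 neuroglioblastoma cells stably carrying a luciferase reporter gene fusion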
[19] = alpha-synuclein stem-loop luciferase translation blockers – H4 neuroglioma cells, luminescence, confirmation (AID 1988); type: functional, cell-based
[20] = system: BJ; test: BJ-TERT-LT-ST fibroblast viability loss – cell-based, RAS-independent, luminescence, dose response (AID 1935); type: functional; conditions: Homo sapiens;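 further: BJ fibroblasts immortalized with TERT plus LT and ST oncogenes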
[21] = system: BJ; test: cells; type: functional, cell-based; conditions: Homo sapiens
[22] = HEK-293T viability loss after treatment – luminescence, T-cell screen hits, cytotoxicity control for TCR NF-kB inhibitor project, dose response (AID 489026); type: functional, cell-based;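 further: cells exposed to compound about 14 hours before the viability readout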
[23] = DRD fibroblast viability loss – cell-based, non-viral oncogenic, luminescence, dose response (AID 1934); type: functional; conditions: Homo sapiens
[24] = Luminescence Cell-Based Dose Response HTS to Identify Inhibitors of 5'UTR Stem-Loop Driven Prion Protein mRNA Translation in H4 Neuroglioblastoma Cells. [Related pubchem assays: 1827 (Project Summary), 1813 (Primary HTS)]; type: functional
[25] = system: BJ; test: BJ-TERT fibroblast viability loss – cell-based, RAS-independent, luminescence, dose response (AID 1933); type: functional; conditions: Homo sapiens
[26] = alpha-synuclein stem-loop translation blockers – luminescence, H4 neuroglioblastoma cells, dose confirmation, confirmation (AID 2454); type: functional, cell-based;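 further: H4 neuroglioblastoma cells carrying an alpha-synuclein 5'UTR luciferase reporter; potency for inhibition of the luciferase signal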
[27] = cells; type: functional, cell-based
[28] = system: BJ; test: growth inhibition of engineered Ras-driven BJ cells – cell-based, alamar blue fluorescence, cherrypicked samples, dose response (AID 2631); type: functional; conditions: Homo sapiens;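 further: confirmatory dose-response assay in RAS-dependent BJ fibroblasts engineered with TERT, LT and ST, with cytotoxicity read by fluorescence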
[29] = luciferase reporter signal suppression in cells – H4 neuroglioma cells, luminescence, dose response (AID 1990); type: functional, cell-based
[30] = inhibition of ADAM10 peptide cleavage – biochemical, FRET peptide substrate, recombinant human ADAM10, selectivity assay for ADAM17 exosite inhibitor project, dose response (AID 743259);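 further: ADAM10 enzyme cleaving a FRET peptide substrate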
[31] = target: Disintegrin and metalloproteinase domain-containing protein 17 (Homo sapiens, UniProt P78536); test: exosite inhibitors of ADAM17, dose response, biochemical (AID 743260)
[32] = target: DNA dC->dU-editing enzyme APOBEC-3G (Homo sapiens, UniProt Q9HC16); test: Dose Response confirmation of small molecule APOBEC3G DNA Deaminase Inhibitors via a fluorescence-based single-stranded DNA deaminase assay. [Related pubchem assays (depositor defined):AID493012, AID493028]; type: functional
[33] = Luminescence Cell-Based Dose Retest to Confirm Inhibitors of Cancer Stem Cells. [Related pubchem assays (depositor defined):AID2717, AID2721]; type: functional; conditions: Homo sapiens
[34] = reduction of Shn3 3'UTR-driven luciferase in osteoblasts – cell-based, Clone20 osteoblasts, firefly luciferase, cherry-picked, dose response (AID 624132); type: functional;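 further: firefly luciferase luminescence from reporter carrying the Shn3 3'UTR in osteoblasts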
[35] = loss of viability in HepG2 cells – cell-based, CellTiter-Glo, cherry-picked, cytotoxicity control for Shn3 inhibitor project, dose response (AID 624134); type: functional
[36] = non-specific 3'UTR reporter inhibition in Clone20-Shn3RL – cell-based, Renilla luciferase, cherry-picked, counter-screen for Shn3 inhibitor project, dose response (AID 624133); type: functional

Sequence of Paired box protein Pax-8 (Q06710 whole entry): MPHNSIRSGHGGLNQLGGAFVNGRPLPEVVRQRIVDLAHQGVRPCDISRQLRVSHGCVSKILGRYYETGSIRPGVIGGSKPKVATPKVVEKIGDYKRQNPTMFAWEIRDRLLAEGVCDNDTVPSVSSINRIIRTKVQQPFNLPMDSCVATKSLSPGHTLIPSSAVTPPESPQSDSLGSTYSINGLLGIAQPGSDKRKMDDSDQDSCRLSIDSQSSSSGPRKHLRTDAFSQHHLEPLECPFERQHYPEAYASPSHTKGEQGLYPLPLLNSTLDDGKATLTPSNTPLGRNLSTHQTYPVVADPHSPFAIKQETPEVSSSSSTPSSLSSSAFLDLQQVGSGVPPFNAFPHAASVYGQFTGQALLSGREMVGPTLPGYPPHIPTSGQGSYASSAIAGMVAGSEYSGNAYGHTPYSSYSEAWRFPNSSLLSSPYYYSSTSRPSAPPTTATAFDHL
Sequence of Disintegrin and metalloproteinase domain-containing protein 17 (P78536 whole entry, the tested form may be a part): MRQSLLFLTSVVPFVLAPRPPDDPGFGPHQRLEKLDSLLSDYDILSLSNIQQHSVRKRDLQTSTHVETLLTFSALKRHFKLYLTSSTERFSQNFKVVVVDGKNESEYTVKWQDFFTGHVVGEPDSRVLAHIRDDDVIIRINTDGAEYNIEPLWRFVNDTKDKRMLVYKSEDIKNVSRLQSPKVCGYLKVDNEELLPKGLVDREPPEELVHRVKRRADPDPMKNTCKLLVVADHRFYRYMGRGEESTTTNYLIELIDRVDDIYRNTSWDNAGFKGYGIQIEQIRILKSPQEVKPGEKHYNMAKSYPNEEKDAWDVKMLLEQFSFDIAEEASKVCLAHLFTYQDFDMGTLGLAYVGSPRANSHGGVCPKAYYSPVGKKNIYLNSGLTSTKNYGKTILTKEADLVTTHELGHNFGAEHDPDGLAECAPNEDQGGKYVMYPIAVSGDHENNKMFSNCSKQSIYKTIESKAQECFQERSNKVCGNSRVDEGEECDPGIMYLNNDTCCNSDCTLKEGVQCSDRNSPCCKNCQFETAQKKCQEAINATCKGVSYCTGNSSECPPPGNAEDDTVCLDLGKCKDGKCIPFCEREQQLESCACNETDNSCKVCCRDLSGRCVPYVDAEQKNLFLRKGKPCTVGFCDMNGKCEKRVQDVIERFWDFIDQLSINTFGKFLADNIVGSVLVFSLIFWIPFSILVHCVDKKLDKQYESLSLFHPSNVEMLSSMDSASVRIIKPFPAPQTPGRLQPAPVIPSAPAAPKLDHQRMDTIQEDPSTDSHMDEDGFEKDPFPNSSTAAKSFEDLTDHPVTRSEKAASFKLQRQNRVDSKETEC
Sequence of DNA dC->dU-editing enzyme APOBEC-3G (Q9HC16 whole entry): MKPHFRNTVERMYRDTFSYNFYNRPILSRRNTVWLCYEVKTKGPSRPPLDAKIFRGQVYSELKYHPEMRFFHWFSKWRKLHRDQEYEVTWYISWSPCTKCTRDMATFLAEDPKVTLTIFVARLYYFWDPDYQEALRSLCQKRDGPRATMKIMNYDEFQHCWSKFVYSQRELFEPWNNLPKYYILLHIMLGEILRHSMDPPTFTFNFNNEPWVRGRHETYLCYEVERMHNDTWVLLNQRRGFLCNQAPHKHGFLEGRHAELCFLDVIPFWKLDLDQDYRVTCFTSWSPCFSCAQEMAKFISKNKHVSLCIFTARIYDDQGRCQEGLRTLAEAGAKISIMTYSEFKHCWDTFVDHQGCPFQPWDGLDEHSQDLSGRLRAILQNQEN

In the case of Cc1cc(-c2nnc(S)n2/N=C/C(Br)=C/c2ccccc2)[nH]n1, the EC50 [1] is reported as < 0.1 µM (active), the EC50 [2] is reported as 1.52 µM (active) and the EC50 [3] is reported as 8.65 µM (active). The CC50 [4] was > 20 µM (active), the IC50 [5] was 4.68 µM (active) and the EC50 [6] was 1.96 µM (active). The CC50 [7] was 9.01 µM (active), the EC50 [8] was 0.943 µM (active) and the AC50 [9] was 2.78 µM (active). The AC50 [10] was 10.4 µM (active), the CC50 [11] was 11.1 µM (active) and the AC50 [12] was > 60 µM (inactive). For the same compound, the CC50 [13] was 29.3 µM (active), the EC50 [14] was > 12 µM (not active) and the EC50 [15] was 77.7 µM (active). The EC50 [16] was > 120 µM (not active).

With CCCCN(CCCC)CCCN1CC(=O)N2[C@@H](Cc3c([nH]c4ccccc34)C2(C)C)C1=O the CC50 [17] was > 40 µM (active).

With CCCCCn1c(=O)c(C(=O)Nc2nc3ccccc3[nH]2)c(O)c2ccccc21 the CC50 [4] was > 20 µM (active), the IC50 [5] was 7.7 µM (active) and the CC50 [7] was 6.21 µM (active). For the same compound, the CC50 [11] was 6.69 µM (active) and the AC50 [12] was 6.54 µM (active).

With COc1ccccc1N1CCN(C(=O)c2cc(=O)c3cc(C)cc(C)c3o2)CC1 the EC50 [18] was 0.289 µM (active), the EC50 [19] was < 0.1 µM (active) and the EC50 [20] was 0.229 µM (inconclusive). For the same compound, the EC50 [21] was 0.938 µM (active), the IC50 [22] was > 80 µM (inactive) and the EC50 [23] was 0.375 µM (active). For the same compound, the EC50 [24] was 0.127 µM (active), the EC50 [25] was 0.346 µM (active) and the EC50 [26] was 0.259 µM (active). For the same compound, the EC50 [27] was 0.415 µM (active), the EC50 [28] was < 0.104 µM (active) and the EC50 [29] was 0.101 µM (active).

For CCOc1ccc(-n2c(SCC(=O)Nc3cc(C)c(NC(=O)c4ccccc4)cc3OC)nnc2-c2cccs2)cc1, the IC50 [30] was > 69.5 µM (inactive) and the IC50 [31] was > 69.5 µM (inactive).

In the case of Nc1[nH]c(C(=O)c2ccc(Br)cc2)c(-c2ccccn2)c1C(=O)NCCc1c[nH]c2ccccc12, the IC50 [30] is reported as 16.4 µM (inactive) and the IC50 [31] is reported as > 69.5 µM (inactive).

In the case of O=C(Cc1ccc(Cl)cc1Cl)Nc1cccc(S(=O)(=O)Nc2ccccc2F)c1, the IC50 [32] is reported as 29.4 µM (active).

In the case of CCC(C)NCCOc1ccc(C(C)(C)c2ccccc2)cc1 (stereo unspecified), the CC50 [4] is reported as 19.5 µM (active), the IC50 [5] is reported as 11.7 µM (active) and the AC50 [33] is reported as 1.63 µM (active). For the same compound, the CC50 [11] was 27.6 µM (active).

In the case of CCOc1ccc2[nH]c(C(=O)N/N=C/c3ccc(OC)cc3)cc2c1, the EC50 [18] is reported as 1.12 µM (active), the EC50 [19] is reported as < 0.1 µM (active) and the EC50 [24] is reported as 0.273 µM (active). The EC50 [26] was 3.25 µM (active), the EC50 [27] was 1.4 µM (active) and the EC50 [29] was 7.08 µM (active).

For Cc1cc(C2=NN=C(NC3CC3)SC2)c(C)n1-c1ccccc1F, the EC50 [18] was 0.005 µM (active), the EC50 [2] was 16.7 µM (active) and the AC50 [34] was < 0.26 µM (active). For the same compound, the AC50 [35] was 28 µM (active), the EC50 [19] was < 0.1 µM (active) and the EC50 [6] was 17.1 µM (active). For the same compound, the AC50 [9] was < 0.26 µM (active), the EC50 [24] was < 0.1 µM (active) and the EC50 [26] was 0.004 µM (active). For the same compound, the EC50 [27] was 0.016 µM (active), the AC50 [36] was 6.07 µM (active) and the EC50 [29] was < 0.1 µM (active).

— ChEMBL document CHEMBL1201862, “PubChem BioAssay data set” (2004)
